Active and inactive are the calls of the source.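 Rule for the calls: active = AC50 no more than ten times the top concentration tested, that is within one log above it; inconclusive = flat curve fit with activity between 30% and 70%, or invalid poor fit; inactive = AC50 beyond ten times the top tested dose.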
system: S. cerevisiae Mot1-301 ts growth rescue, BacTiter-Glo ATP luminescence; assay: restored Mot1-301 yeast growth at 38.5C – whole organism, S. cerevisiae, Mot1-301 ts mutant, luminescence, dose retest, SUMOylation pathway inhibitor project, confirmation (AID 463204);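 note: growth at restrictive 38.5 degrees C of Mot1-301 OY566 strain; actives raise luminescence by restoring growth of the ts mutant at high temperature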

SMILES | AC50
Cc1ccccc1-c1nc2ccc(Cl)cc2c(=O)n1O | > 42 µM (inactive)
Cc1ccc(CSCCNC(=O)c2ccc(NS(C)(=O)=O)cc2)cc1 | > 42 µM (inactive)
CCN(CCn1cccn1)C(=O)C1CCC(=O)N(CCc2cccc(F)c2)C1 (stereo not drawn) | > 42 µM (inactive)
CCN(C(=O)CCS(=O)(=O)c1ccc2c(c1)oc(=O)n2C)c1ccc(OC)cc1 | > 42 µM (inactive)
c1ccc2nc3c(nc2c1)OCC1CCCCN31 (stereo not drawn) | > 42 µM (inactive)
COc1ccccc1NC(NC(=O)c1ccco1)C(=O)c1ccccc1 (stereo not drawn) | > 42 µM (inactive)
Cc1ccc2nc(NC(=O)C3CCN(S(=O)(=O)c4cccnc4)CC3)sc2c1 | > 42 µM (inactive)
Clc1ccccc1C(c1ccccc1)(c1ccccc1)n1ccnc1 | 3.47 µM
CCC1CCCCN1C(=O)CSc1nnc(CNC(=O)c2ccco2)o1 (stereo not drawn) | > 42 µM (inactive)
Cc1ccc(N(CC(=O)NC2CCCC2)C(=O)CCC(=O)Nc2ccccn2)cc1C | > 42 µM (inactive)
Fc1cccc(NC(=S)N2CCn3cccc3C2c2cccnc2)c1 (stereo not drawn) | > 42 µM (inactive)
COc1cc2cc(C)c3nnc(SCC(=O)Nc4cc(C)on4)n3c2cc1OC | > 42 µM (inactive)
O=C(CCCn1cnc([N+](=O)[O-])n1)Nc1cccc2ccccc12 | > 42 µM (inactive)
CC(C(=O)N1CCN(C(=O)c2ccco2)CC1)n1sc2ccccc2c1=O (stereo not drawn) | > 42 µM (inactive)
N/C(=N\OC(=O)CCC1CCCC1)c1ccc([N+](=O)[O-])cc1 | > 42 µM (inactive)
COc1ccc2[nH]c(=O)c(CN(C(=O)c3ccccn3)c3ccccc3)cc2c1 | > 42 µM (inactive)
COc1cccc(OC)c1C(=O)N1CCN(Cc2ccccc2C)CC1 | > 42 µM (inactive)
O=c1c2c3c(sc2n2cnnc2n1-c1ccccc1)N(Cc1ccccc1)CCC3 | > 42 µM (inactive)
Cc1cccc(C)c1NS(=O)(=O)c1ccc(OCCNS(C)(=O)=O)cc1 | > 42 µM (inactive)
CCOc1ccc(C(=O)NNC2CC(=O)N(CCc3ccccc3)C2=O)cc1OC (stereo not drawn) | > 42 µM (inactive)
NC(=O)c1cc(S(=O)(=O)N2CCCC2)ccc1OCc1ccc(F)cc1 | > 42 µM (inactive)
O=[N+]([O-])c1cccc(-c2nc3ccc([N+](=O)[O-])cc3[nH]2)c1 | > 42 µM (inactive)
Cc1nc2nc[nH]n2c(=O)c1NS(=O)(=O)c1ccc([N+](=O)[O-])cc1 | > 42 µM (inactive)
COc1ccc2[nH]c(C(=O)N/N=C/c3ccccc3OC)cc2c1 | > 42 µM (inactive)
N#CCN(N=Nc1ccccc1)c1ccccc1 | > 42 µM (inactive)

SMILES | AC50
CC1CC(C)(C)N(C(=O)CN2C(=O)CCC2=O)c2ccccc21 (stereo not drawn) | > 42 µM (inactive)
O=C(O)C1C2CCCCC2=C2CCCCC2C1C(=O)c1ccccc1 (stereo not drawn) | 3.26 µM
O=C1NC2(CCCCC2)NN1c1ccccc1 | > 42 µM (inactive)
N#C/C(=C\c1cn(-c2ccccc2)nc1-c1cccnc1)c1nnc2n1CCCCC2 | > 42 µM (inactive)
Cc1nc(-c2cccc(S(=O)(=O)N3CCOCC3)c2)cs1 | > 42 µM (inactive)
COc1ccc(-n2c3c(cc(C(=O)NCC(=O)c4ccccc4)c2=O)C(=O)CC(C)(C)C3)cc1 | > 42 µM (inactive)
COC/C=C/C1=CC2=CC(=O)C(C)(OC(=O)c3cnc4ccccc4n3)C(=O)C2=CN1CCOC (stereo not drawn) | > 42 µM (inactive)
COc1ccc([N+](=O)[O-])c2c(=O)ccoc12 | > 42 µM (inactive)
CN(C(=O)c1ccc(-c2nn(C)c(=O)c3ccccc23)cc1)C1CCCCC1 | > 42 µM (inactive)
COc1ccc(N(CC(=O)NCc2ccc(C)cc2)S(=O)(=O)c2c(C)nn(C)c2C)cc1 | > 42 µM (inactive)
CC(=O)Nc1ccc(C(=O)NCCCOC(C)C)cc1 | > 42 µM (inactive)
CN(c1ccccc1C(=O)N1CCN(Cc2ccc3c(c2)OCO3)CC1)S(C)(=O)=O | > 42 µM (inactive)
O=C(O)/C=C/c1cccnc1 | > 42 µM (inactive)
CC(C)(C)C(=O)C(Cl)C(=O)Nc1ccccc1 (stereo not drawn) | 3.35 µM
C=C1C(O)[C@@H]2O[C@]3(CC[C@H](/C=C/C(C)[C@@H]4CC(C)=CC5(O[C@H](C[C@@](C)(O)C(=O)O)CCC5O)O4)O3)CC[C@H]2O[C@@H]1C(O)CC(C)[C@H]1OC2(CCCCO2)CCC1C (stereo partly drawn) | 26 µM
COc1cc(/C=N/NC2=NS(=O)(=O)c3ccccc32)cc(OC)c1OC | > 42 µM (inactive)
C[C@@]12C(=O)Nc3ccc(F)cc3C(=O)N1[C@H]1c3cc(Cl)ccc3OC[C@@H]1[C@@H]2c1ccccc1 | 1.97 µM
CCOC(=O)CS(=O)(=O)c1ccc2ccccc2c1 | > 42 µM (inactive)
Cc1cc(C(=O)OCC(=O)Nc2cccc(S(N)(=O)=O)c2)c2ccccc2n1 | > 42 µM (inactive)
CC1=CC(C)(C)N2C(=O)C3(NCCc4c3[nH]c3ccccc43)c3cc(C)cc1c32 (stereo not drawn) | 5.51 µM
CCOC(=O)CSc1nc2ccccc2c(=O)n1CC(C)C | > 42 µM (inactive)
CCn1c(SCC(=O)Nc2nc(-c3ccccc3)cs2)nnc1-c1ccccc1 | > 42 µM (inactive)
COc1ccc2cc3c(N)nn(C(=O)c4ccccc4Cl)c3nc2c1 | > 42 µM (inactive)
CCOc1ccc(CCNC(=O)COC(=O)c2cccc(OC)c2O)cc1OCC | > 42 µM (inactive)
CCS(=O)(=O)N1CCCC(C(=O)NCc2cccnc2)C1 (stereo not drawn) | > 42 µM (inactive)

SMILES | AC50
O=C(c1ccc(F)cc1)C(CN1CCOCC1)c1ccccc1 (stereo not drawn) | 1.3 µM
Cc1ccc(C(=O)/C=C/Nc2ccccc2C(N)=O)cc1 | > 42 µM (inactive)
C/C(=N/OCO/N=C(\C)c1ccccc1)c1ccccc1 | > 42 µM (inactive)
CC1(C)Oc2ccc3ccc(=O)oc3c2/C(=C/Nc2ccc(O)cc2)C1=O | > 42 µM (inactive)
O=C(COc1cccc2cccnc12)N1CCc2ccccc21 | > 42 µM (inactive)
CCn1c(N2CCN(C(=O)C34CC5CC(CC(C5)C3)C4)CC2)nc2ccccc21 | > 42 µM (inactive)
Cn1nc(C(=O)NCCc2ccc(Cl)cc2)c2c1-c1ccccc1S(=O)(=O)C2 | > 42 µM (inactive)
Cc1c(C(=O)NC(C)c2ccc(-n3ccnc3)cc2)cccc1[N+](=O)[O-] (stereo not drawn) | > 42 µM (inactive)
Cc1csc(=O)n1CC(=O)OCC(=O)Nc1cc([N+](=O)[O-])ccc1Cl | > 42 µM (inactive)
CC1CCCC(C)N1/N=C/c1cc(Br)cc(Br)c1O (stereo not drawn) | 12.5 µM
Cc1ccc(NC(=S)NNC(=O)c2ccc(N3CCOCC3)c([N+](=O)[O-])c2)cc1C | > 42 µM (inactive)
CC(C)Cc1cc(CN2CCC(CO)(Cc3ccccc3)CC2)[nH]n1 | > 42 µM (inactive)
CCCCN(C(=O)C1=COCCO1)c1c(N)n(Cc2ccccc2)c(=O)[nH]c1=O | > 42 µM (inactive)
C=CCNC(=O)NC(=O)COC(=O)/C(C#N)=C/c1cc(C)n(CC(C)C)c1C | > 42 µM (inactive)
CCOC(=O)c1c(C)n(C)c2cc(-c3ccc(C)cc3)c(O)cc12 | > 42 µM (inactive)
Cc1cccc(N2CCN(CCCNC(=O)c3ccc(NC(=O)C4=CSCCO4)cc3)CC2C)c1 (stereo not drawn) | > 42 µM (inactive)
COc1ccc(-c2nc(NC(=O)CCNC(=O)c3ccco3)sc2C)cc1 | > 42 µM (inactive)
O=C(CCNS(=O)(=O)c1cccc2nsnc12)NCCC1=CCCCC1 | > 42 µM (inactive)
CCCCC1=CC2=CC(=O)C(C)(OC(=O)CC)C(=O)C2=CN1CCc1ccc(Br)cc1 (stereo not drawn) | > 42 µM (inactive)
COc1ccccc1C(=O)OCC(=O)NC(=O)NCc1ccccc1 | > 42 µM (inactive)
COCCn1c(SCc2ccc(Cl)cc2)nc2c1c(=O)[nH]c(=O)n2C | > 42 µM (inactive)
COc1ccc(C(=O)N/C(=C\c2cc(OC)c(OC)cc2[N+](=O)[O-])C(=O)NCCO)cc1 | > 42 µM (inactive)
Cc1cc(-c2nnc3sc(C4CCCCC4)nn23)n[nH]1 | > 42 µM (inactive)
CN(NC(=O)c1ccccc1F)c1nc(C(F)(F)F)nc2ccccc12 | > 42 µM (inactive)
CCc1nc2ccccc2c(C(=O)OC2CCCCC2=O)c1C (stereo not drawn) | > 42 µM (inactive)

SMILES | AC50
COc1cc(CN2CCNC(=O)C2CC(=O)NCCc2ncccc2C)cc(OC)c1 (stereo not drawn) | > 42 µM (inactive)
COc1ccc2c(c1)[C@H]1[C@H](CO2)[C@H](c2ccccc2)[C@]2(C)C(=O)Nc3cc(C)ccc3C(=O)N12 | 5.3 µM
Cc1ccc(/C=C2\SC(N3CCCC3)=NC2=O)cc1 | > 42 µM (inactive)
N#Cc1cc([N+](=O)[O-])cnc1NCC(O)CO (stereo not drawn) | > 42 µM (inactive)
COC(=O)c1ccccc1N(C)S(C)(=O)=O | > 42 µM (inactive)
O=C1COc2ccc(C(=O)COC(=O)c3ncc(Cl)c(Cl)c3Cl)cc2N1 | > 42 µM (inactive)
N#Cc1c2ccc([N+](=O)[O-])cc2[n+]([O-])n1-c1ccccc1 | 2.9 µM
CC(=O)Nc1ccc(/C(C)=N/NC(=O)c2ccncc2)cc1 | > 42 µM (inactive)
O=C(COc1ccc(Cl)cc1)NCCCNC(=O)c1ccccn1 | > 42 µM (inactive)
COc1cccc(-n2c(SCC(=O)NC3CCCCC3)nc3n[nH]c(C)c3c2=N)c1 | > 42 µM (inactive)
CCc1ccc(S(=O)(=O)NCc2cccnc2)cc1 | > 42 µM (inactive)
COc1ccc(C2C3=C(CC(C)(C)CC3=O)Nc3n[nH]c(C)c32)cc1 (stereo not drawn) | > 42 µM (inactive)
O=C1c2ccccc2C(=O)N1CCSc1ccccc1 | > 42 µM (inactive)
COCCN(C(=O)c1csnn1)C(C(=O)NC1CCCCC1)c1ccccc1 (stereo not drawn) | > 42 µM (inactive)
Cc1ccc(NC(=O)CSCC(=O)Nc2ccccc2N2CCCC2)cc1 | > 42 µM (inactive)
CCOC(=O)c1cnc2oc3ccccc3n2c1=O | > 42 µM (inactive)
Cc1cc(C)cc(OCC(=O)NC2CCCc3ccccc32)c1 (stereo not drawn) | > 42 µM (inactive)
c1ccc(C(c2ccccc2)N2CCN(C(c3ccccn3)c3nnnn3C3CCCC3)CC2)cc1 (stereo not drawn) | > 42 µM (inactive)
COc1ccccc1CNC(=O)C1CCC(=O)N1C(C)C (stereo not drawn) | > 42 µM (inactive)
Nc1nc(-c2ccc(Cl)cc2)nc(-c2ccc(Cl)cc2)n1 | > 42 µM (inactive)
CCC(C)(C)n1nnnc1C(c1ccc(OC)c(OC)c1)N1CCN(c2cccc(OC)c2)CC1 (stereo not drawn) | > 42 µM (inactive)
O=C(Nc1nc(-c2ccccn2)cs1)c1ccc2c(c1)OCCO2 | > 42 µM (inactive)
CCCCNC(=O)c1ccccc1NC(=O)C1=C(C)OCCS1 | > 42 µM (inactive)
